# Laboratory results taken from PubChem BioAssay (NCI).
#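 The compound was tested at five concentrations on cells cultured in 96-well plates, with a 48-hour exposure period. TGI denotes the concentration required for complete inhibition of growth.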
# Legend:
# Test in all cases: growth of human tumour cells (NCI), 48 h
# SNB-19 CNS = test system: SNB-19 CNS
# TK-10 renal = test system: TK-10 renal
# OVCAR-4 ovarian = test system: OVCAR-4 ovarian
# IGROV1 ovarian = test system: IGROV1 ovarian
# NCI-H23 lung = test system: NCI-H23 lung
# SK-OV-3 ovarian = test system: SK-OV-3 ovarian
# K-562 leukemia = test system: K-562 leukemia
# M14 melanoma = test system: M14 melanoma
# SF-268 CNS = test system: SF-268 CNS
# MDA-N = test system: MDA-N
# SK-MEL-5 melanoma = test system: SK-MEL-5 melanoma
# KM12 colon = test system: KM12 colon
# DU-145 prostate = test system: DU-145 prostate
# OVCAR-3 ovarian = test system: OVCAR-3 ovarian
# LOX IMVI melanoma = test system: LOX IMVI melanoma
# OVCAR-8 ovarian = test system: OVCAR-8 ovarian
# SF-539 CNS = test system: SF-539 CNS
# SK-MEL-28 melanoma = test system: SK-MEL-28 melanoma
# NCI/ADR-RES ovarian = test system: NCI/ADR-RES ovarian
# SF-295 CNS = test system: SF-295 CNS
# UACC-62 melanoma = test system: UACC-62 melanoma
# UO-31 renal = test system: UO-31 renal
# 786-0 renal = test system: 786-0 renal
# T-47D breast = test system: T-47D breast
# RXF 393 renal = test system: RXF 393 renal
# SN12C renal = test system: SN12C renal
# HT29 colon = test system: HT29 colon
# SNB-75 CNS = test system: SNB-75 CNS
# HCT-116 colon = test system: HCT-116 colon
# BT-549 breast = test system: BT-549 breast
# RPMI-8226 leukemia = test system: RPMI-8226 leukemia
# EKVX NSCLC = test system: EKVX NSCLC
# SW-620 colon = test system: SW-620 colon
# HCT-15 colon = test system: HCT-15 colon
# PC-3 prostate = test system: PC-3 prostate
# ACHN renal = test system: ACHN renal
# NCI-H460 lung = test system: NCI-H460 lung
# U251 CNS = test system: U251 CNS
# MCF7 breast = test system: MCF7 breast
# HCC-2998 colon = test system: HCC-2998 colon
# A498 renal = test system: A498 renal
# MDA-MB-435 = test system: MDA-MB-435
# MDA-MB-231 breast = test system: MDA-MB-231 breast
# HL-60(TB) leukemia = test system: HL-60(TB) leukemia
# CCRF-CEM leukemia = test system: CCRF-CEM leukemia
# HS 578T breast = test system: HS 578T breast
# CAKI-1 renal = test system: CAKI-1 renal
# A549 NSCLC = test system: A549 NSCLC
# HOP-92 NSCLC = test system: HOP-92 NSCLC
# OVCAR-5 ovarian = test system: OVCAR-5 ovarian
# UACC-257 melanoma = test system: UACC-257 melanoma
# SR leukemia = test system: SR leukemia
# HOP-62 NSCLC = test system: HOP-62 NSCLC
# MOLT-4 leukemia = test system: MOLT-4 leukemia
# COLO 205 colon = test system: COLO 205 colon
# SK-MEL-2 melanoma = test system: SK-MEL-2 melanoma
# MALME-3M melanoma = test system: MALME-3M melanoma
structure (smiles),measurement,setting,value
NCCN1C(=O)c2ccccc2C1c1ccc(Cl)cc1 (configuration not stated),TGI,SNB-19 CNS,> 100 µM
same,TGI,TK-10 renal,> 100 µM
same,TGI,OVCAR-4 ovarian,> 100 µM
same,TGI,IGROV1 ovarian,> 100 µM
same,TGI,NCI-H23 lung,> 100 µM
same,TGI,SK-OV-3 ovarian,> 100 µM
same,TGI,K-562 leukemia,> 100 µM
same,TGI,M14 melanoma,> 100 µM
same,TGI,SF-268 CNS,> 100 µM
same,TGI,MDA-N,> 100 µM
same,TGI,SK-MEL-5 melanoma,> 100 µM
same,TGI,KM12 colon,> 100 µM
same,TGI,DU-145 prostate,> 100 µM
same,TGI,OVCAR-3 ovarian,> 100 µM
same,TGI,LOX IMVI melanoma,> 100 µM
same,TGI,OVCAR-8 ovarian,> 100 µM
same,TGI,SF-539 CNS,> 100 µM
same,TGI,SK-MEL-28 melanoma,> 100 µM
same,TGI,NCI/ADR-RES ovarian,> 100 µM
same,TGI,SF-295 CNS,> 100 µM
same,TGI,UACC-62 melanoma,> 100 µM
same,TGI,UO-31 renal,> 100 µM
same,TGI,786-0 renal,> 100 µM
same,TGI,T-47D breast,> 100 µM
same,TGI,RXF 393 renal,> 100 µM
same,TGI,SN12C renal,> 100 µM
same,TGI,HT29 colon,> 100 µM
same,TGI,SNB-75 CNS,> 100 µM
same,TGI,HCT-116 colon,> 100 µM
same,TGI,BT-549 breast,> 100 µM
same,TGI,RPMI-8226 leukemia,> 100 µM
same,TGI,EKVX NSCLC,> 100 µM
same,TGI,SW-620 colon,> 100 µM
same,TGI,HCT-15 colon,> 100 µM
same,TGI,PC-3 prostate,> 100 µM
same,TGI,ACHN renal,> 100 µM
same,TGI,NCI-H460 lung,> 100 µM
same,TGI,U251 CNS,> 100 µM
same,TGI,MCF7 breast,> 100 µM
same,TGI,HCC-2998 colon,> 100 µM
same,TGI,A498 renal,> 100 µM
same,TGI,MDA-MB-435,> 100 µM
same,TGI,MDA-MB-231 breast,> 100 µM
same,TGI,HL-60(TB) leukemia,> 100 µM
same,TGI,CCRF-CEM leukemia,> 100 µM
same,TGI,HS 578T breast,> 100 µM
same,TGI,CAKI-1 renal,> 100 µM
same,TGI,A549 NSCLC,> 100 µM
same,TGI,HOP-92 NSCLC,> 100 µM
same,TGI,OVCAR-5 ovarian,> 100 µM
same,TGI,UACC-257 melanoma,> 100 µM
same,TGI,SR leukemia,> 100 µM
same,TGI,HOP-62 NSCLC,> 100 µM
same,TGI,MOLT-4 leukemia,> 100 µM
same,TGI,COLO 205 colon,> 100 µM
same,TGI,SK-MEL-2 melanoma,> 100 µM
CSc1nc(N)c2c(-c3ccccc3)c3c(nc2n1)CCCC3,TGI,SNB-19 CNS,> 100 µM
same,TGI,TK-10 renal,> 100 µM
same,TGI,OVCAR-4 ovarian,> 100 µM
same,TGI,IGROV1 ovarian,> 100 µM
same,TGI,NCI-H23 lung,> 100 µM
same,TGI,SK-OV-3 ovarian,> 100 µM
same,TGI,K-562 leukemia,> 100 µM
same,TGI,M14 melanoma,> 100 µM
same,TGI,MDA-N,> 100 µM
same,TGI,SK-MEL-5 melanoma,> 100 µM
same,TGI,KM12 colon,> 100 µM
same,TGI,DU-145 prostate,> 100 µM
same,TGI,OVCAR-3 ovarian,> 100 µM
same,TGI,LOX IMVI melanoma,> 100 µM
same,TGI,OVCAR-8 ovarian,> 100 µM
same,TGI,SF-539 CNS,> 100 µM
same,TGI,SK-MEL-28 melanoma,> 100 µM
same,TGI,NCI/ADR-RES ovarian,> 100 µM
same,TGI,SF-295 CNS,> 100 µM
same,TGI,MALME-3M melanoma,> 100 µM
same,TGI,UACC-62 melanoma,> 100 µM
same,TGI,UO-31 renal,> 100 µM
same,TGI,T-47D breast,> 100 µM
same,TGI,RXF 393 renal,94.2 µM
same,TGI,SN12C renal,> 100 µM
same,TGI,HT29 colon,> 100 µM
same,TGI,SNB-75 CNS,> 100 µM
same,TGI,HCT-116 colon,> 100 µM
same,TGI,BT-549 breast,> 100 µM
same,TGI,RPMI-8226 leukemia,> 100 µM
same,TGI,EKVX NSCLC,> 100 µM
same,TGI,SW-620 colon,> 100 µM
same,TGI,HCT-15 colon,> 100 µM
same,TGI,PC-3 prostate,> 100 µM
same,TGI,ACHN renal,> 100 µM
same,TGI,NCI-H460 lung,> 100 µM
same,TGI,U251 CNS,> 100 µM
same,TGI,MCF7 breast,> 100 µM
same,TGI,MDA-MB-435,> 100 µM
same,TGI,MDA-MB-231 breast,> 100 µM
same,TGI,HL-60(TB) leukemia,> 100 µM
same,TGI,CCRF-CEM leukemia,> 100 µM
same,TGI,HS 578T breast,48.5 µM
same,TGI,CAKI-1 renal,> 100 µM
same,TGI,A549 NSCLC,> 100 µM
same,TGI,OVCAR-5 ovarian,> 100 µM
same,TGI,UACC-257 melanoma,> 100 µM
same,TGI,SR leukemia,> 100 µM
same,TGI,HOP-62 NSCLC,> 100 µM
same,TGI,MOLT-4 leukemia,> 100 µM
same,TGI,COLO 205 colon,> 100 µM
